These results are taken from patent US10251402B2, “Methods and compositions for controlling leaf-cutting ant populations” (ISCA Technologies, Inc., priority 2015, dated 2019).

SMILES strings stand for the structures. Like-named read-outs stand apart in the source and are kept apart here.

Data set [1] deals with Leucoagaricus gongylophorus. Briefly: Fungistatic inhibition: fungal inoculations exposed to wells containing botanical oils, mycelial growth toward the well vs unexposed controls. In kind it is cell-based. To be noted: 21 days exposure to well containing oil; mycelial growth toward well vs unexposed control.
The subject of data set [2] is Leucoagaricus gongylophorus. To be noted: for Growth Evaluation: 30-day incubation, median of five replicates. On the procedure: A similar lab trial was designed and performed to evaluate the fungicidal capacities of these botanical oils in addition to their fungistatic properties against L. gongylophorus. For this test, the plant oils were incorporated directly into the fungal growth medium at different concentrations (0.1, 1, and 5%). The growth of the fungus on this medium was evaluated after a 30-day incubation period, based on the quantity and density of the mycelium, according to the following pattern. Growth was characterized by the following measure: 5+ indicated growth identical to the control treatment (medium alone, with no plant oil treatment), or 100% growth; 4+ indicated growth equivalent to 80% of the control treatment growth; 3+ indicated 60%; 2+ indicated 40%; 1+ indicated 20%; and 0 indicated total elimination of the fungal colony.

For the molecule `COC(=O)c1ccccc1O` [Methyl Salicylate], the “Inhibition (%) of fungal growth (fungistatic)” value in data set [1] stood at 100%. The same molecule showed a fungal mortality in data set [2] of 100%. In addition, the “Growth Evaluation” value in data set [2] (concentration 0.1% in medium) was 3+ (3+ indicated 60%); in data set [2] (concentration 1% in medium) it was 0; in data set [2] (concentration 5% in medium), 0.
